Measured values taken from ChEMBL document CHEMBL5303573, “Mapping human microbiome drug metabolism by gut bacteria and their genes” (Nature, 2019).

Assay: The drug is tested on Providencia stuartii strain: ATCC25827 for biotransformation. The drug concentrations were measured before and after a 12-h incubation by liquid-chromatography-coupled mass spectrometry (LC–MS)
Details: 2 µM

| Compound | Bacterial Biotransformation |
| --- | --- |
| CNC(=C[N+](=O)[O-])NCCSCc1ccc(CN(C)C)o1 [RANITIDINE] | Compound NOT metabolized |

Assay: The drug is tested on Bacteroides uniformis strain: ATCC8492 for biotransformation. The drug concentrations were measured before and after a 12-h incubation by liquid-chromatography-coupled mass spectrometry (LC–MS)
Details: 2 µM

| Compound | Bacterial Biotransformation |
| --- | --- |
| CNC(=C[N+](=O)[O-])NCCSCc1ccc(CN(C)C)o1 [RANITIDINE] | Compound NOT metabolized |
| NS(=O)(=O)c1cc2c(cc1Cl)N=C(CSCc1ccccc1)NS2(=O)=O [BENZTHIAZIDE] | Compound NOT metabolized |
| Cc1nc2n(c(=O)c1CCN1CCC(c3noc4cc(F)ccc34)CC1)CCCC2 [RISPERIDONE] | Compound NOT metabolized |
| COc1cc(NC(C)CCCN)c2ncccc2c1.O=P(O)(O)O.O=P(O)(O)O (configuration not stated) [PRIMAQUINE PHOSPHATE] | Compound metabolized |

Assay: The drug is tested on Eubacterium rectale strain: ATCC33656 for biotransformation. The drug concentrations were measured before and after a 12-h incubation by liquid-chromatography-coupled mass spectrometry (LC–MS)
Details: agathobacter rectalis, 2 µM

| Compound | Bacterial Biotransformation |
| --- | --- |
| CNC(=C[N+](=O)[O-])NCCSCc1ccc(CN(C)C)o1 [RANITIDINE] | Compound metabolized |
| Cc1nc2n(c(=O)c1CCN1CCC(c3noc4cc(F)ccc34)CC1)CCCC2 [RISPERIDONE] | Compound metabolized |
| COc1cc(NC(C)CCCN)c2ncccc2c1.O=P(O)(O)O.O=P(O)(O)O (configuration not stated) [PRIMAQUINE PHOSPHATE] | Compound NOT metabolized |

Assay: The drug is tested on Anaerococcus hydrogenalis strain: DSM7454 for biotransformation. The drug concentrations were measured before and after a 12-h incubation by liquid-chromatography-coupled mass spectrometry (LC–MS)
Details: 2 µM

| Compound | Bacterial Biotransformation |
| --- | --- |
| CNC(=C[N+](=O)[O-])NCCSCc1ccc(CN(C)C)o1 [RANITIDINE] | Compound metabolized |
| NS(=O)(=O)c1cc2c(cc1Cl)N=C(CSCc1ccccc1)NS2(=O)=O [BENZTHIAZIDE] | Compound NOT metabolized |
| Cc1nc2n(c(=O)c1CCN1CCC(c3noc4cc(F)ccc34)CC1)CCCC2 [RISPERIDONE] | Compound metabolized |
| COc1cc(NC(C)CCCN)c2ncccc2c1.O=P(O)(O)O.O=P(O)(O)O (configuration not stated) [PRIMAQUINE PHOSPHATE] | Compound metabolized |

Assay: The drug is tested on Bacteroides dorei strain: DSM17855 for biotransformation. The drug concentrations were measured before and after a 12-h incubation by liquid-chromatography-coupled mass spectrometry (LC–MS)
Details: phocaeicola dorei, 2 µM

| Compound | Bacterial Biotransformation |
| --- | --- |
| CNC(=C[N+](=O)[O-])NCCSCc1ccc(CN(C)C)o1 [RANITIDINE] | Compound metabolized |

Details: bifidobacterium adolescentis, 12 h, 2 µM
Description: The drug is tested on Bifidobacterium adolescentis strain: ATCC 15703 for biotransformation. The drug concentrations were measured before and after a 12-h incubation by liquid-chromatography-coupled mass spectrometry (LC–MS)

| Compound | Bacterial Biotransformation |
| --- | --- |
| CNC(=C[N+](=O)[O-])NCCSCc1ccc(CN(C)C)o1 [RANITIDINE] | Compound metabolized |
| NS(=O)(=O)c1cc2c(cc1Cl)N=C(CSCc1ccccc1)NS2(=O)=O [BENZTHIAZIDE] | Compound NOT metabolized |
| Cc1nc2n(c(=O)c1CCN1CCC(c3noc4cc(F)ccc34)CC1)CCCC2 [RISPERIDONE] | Compound NOT metabolized |
| COc1cc(NC(C)CCCN)c2ncccc2c1.O=P(O)(O)O.O=P(O)(O)O (configuration not stated) [PRIMAQUINE PHOSPHATE] | Compound NOT metabolized |

Assay: The drug is tested on Anaerotruncus colihominis strain: DSM17241 for biotransformation. The drug concentrations were measured before and after a 12-h incubation by liquid-chromatography-coupled mass spectrometry (LC–MS)
Details: 2 µM

| Compound | Bacterial Biotransformation |
| --- | --- |
| CNC(=C[N+](=O)[O-])NCCSCc1ccc(CN(C)C)o1 [RANITIDINE] | Compound metabolized |
| NS(=O)(=O)c1cc2c(cc1Cl)N=C(CSCc1ccccc1)NS2(=O)=O [BENZTHIAZIDE] | Compound NOT metabolized |
| Cc1nc2n(c(=O)c1CCN1CCC(c3noc4cc(F)ccc34)CC1)CCCC2 [RISPERIDONE] | Compound metabolized |

Assay: The drug is tested on Bacteroides ovatus strain: ATCC8483 for biotransformation. The drug concentrations were measured before and after a 12-h incubation by liquid-chromatography-coupled mass spectrometry (LC–MS)
Details: 2 µM

| Compound | Bacterial Biotransformation |
| --- | --- |
| CNC(=C[N+](=O)[O-])NCCSCc1ccc(CN(C)C)o1 [RANITIDINE] | Compound NOT metabolized |
| NS(=O)(=O)c1cc2c(cc1Cl)N=C(CSCc1ccccc1)NS2(=O)=O [BENZTHIAZIDE] | Compound NOT metabolized |
| Cc1nc2n(c(=O)c1CCN1CCC(c3noc4cc(F)ccc34)CC1)CCCC2 [RISPERIDONE] | Compound NOT metabolized |
| COc1cc(NC(C)CCCN)c2ncccc2c1.O=P(O)(O)O.O=P(O)(O)O (configuration not stated) [PRIMAQUINE PHOSPHATE] | Compound metabolized |

Assay: The drug is tested on Ruminococcus gnavus strain: ATCC29149 for biotransformation. The drug concentrations were measured before and after a 12-h incubation by liquid-chromatography-coupled mass spectrometry (LC–MS)
Details: mediterraneibacter gnavus, 2 µM

| Compound | Bacterial Biotransformation |
| --- | --- |
| CNC(=C[N+](=O)[O-])NCCSCc1ccc(CN(C)C)o1 [RANITIDINE] | Compound metabolized |
| NS(=O)(=O)c1cc2c(cc1Cl)N=C(CSCc1ccccc1)NS2(=O)=O [BENZTHIAZIDE] | Compound NOT metabolized |
| Cc1nc2n(c(=O)c1CCN1CCC(c3noc4cc(F)ccc34)CC1)CCCC2 [RISPERIDONE] | Compound metabolized |
| COc1cc(NC(C)CCCN)c2ncccc2c1.O=P(O)(O)O.O=P(O)(O)O (configuration not stated) [PRIMAQUINE PHOSPHATE] | Compound NOT metabolized |

Assay: The drug is tested on Edwardsiella tarda strain: ATCC23685 for biotransformation. The drug concentrations were measured before and after a 12-h incubation by liquid-chromatography-coupled mass spectrometry (LC–MS)
Details: 2 µM

| Compound | Bacterial Biotransformation |
| --- | --- |
| CNC(=C[N+](=O)[O-])NCCSCc1ccc(CN(C)C)o1 [RANITIDINE] | Compound NOT metabolized |
| NS(=O)(=O)c1cc2c(cc1Cl)N=C(CSCc1ccccc1)NS2(=O)=O [BENZTHIAZIDE] | Compound NOT metabolized |
| Cc1nc2n(c(=O)c1CCN1CCC(c3noc4cc(F)ccc34)CC1)CCCC2 [RISPERIDONE] | Compound NOT metabolized |

Assay: The drug is tested on Bacteroides coprophilus strain: DSM18228 for biotransformation. The drug concentrations were measured before and after a 12-h incubation by liquid-chromatography-coupled mass spectrometry (LC–MS)
Details: 2 µM

| Compound | Bacterial Biotransformation |
| --- | --- |
| CNC(=C[N+](=O)[O-])NCCSCc1ccc(CN(C)C)o1 [RANITIDINE] | Compound metabolized |
| NS(=O)(=O)c1cc2c(cc1Cl)N=C(CSCc1ccccc1)NS2(=O)=O [BENZTHIAZIDE] | Compound NOT metabolized |
| Cc1nc2n(c(=O)c1CCN1CCC(c3noc4cc(F)ccc34)CC1)CCCC2 [RISPERIDONE] | Compound NOT metabolized |
| COc1cc(NC(C)CCCN)c2ncccc2c1.O=P(O)(O)O.O=P(O)(O)O (configuration not stated) [PRIMAQUINE PHOSPHATE] | Compound NOT metabolized |

Assay: The drug is tested on Parabacteroides merdae strain: ATCC43184 for biotransformation. The drug concentrations were measured before and after a 12-h incubation by liquid-chromatography-coupled mass spectrometry (LC–MS)
Details: 2 µM

| Compound | Bacterial Biotransformation |
| --- | --- |
| CNC(=C[N+](=O)[O-])NCCSCc1ccc(CN(C)C)o1 [RANITIDINE] | Compound NOT metabolized |
| NS(=O)(=O)c1cc2c(cc1Cl)N=C(CSCc1ccccc1)NS2(=O)=O [BENZTHIAZIDE] | Compound NOT metabolized |
| Cc1nc2n(c(=O)c1CCN1CCC(c3noc4cc(F)ccc34)CC1)CCCC2 [RISPERIDONE] | Compound NOT metabolized |
| COc1cc(NC(C)CCCN)c2ncccc2c1.O=P(O)(O)O.O=P(O)(O)O (configuration not stated) [PRIMAQUINE PHOSPHATE] | Compound NOT metabolized |

Details: limosilactobacillus reuteri cf48-3a, 12 h, 2 µM
Description: The drug is tested on Lactobacillus reuteri CF48-3A strain: BEI HM-102 for biotransformation. The drug concentrations were measured before and after a 12-h incubation by liquid-chromatography-coupled mass spectrometry (LC–MS)

| Compound | Bacterial Biotransformation |
| --- | --- |
| CNC(=C[N+](=O)[O-])NCCSCc1ccc(CN(C)C)o1 [RANITIDINE] | Compound NOT metabolized |
| NS(=O)(=O)c1cc2c(cc1Cl)N=C(CSCc1ccccc1)NS2(=O)=O [BENZTHIAZIDE] | Compound NOT metabolized |
| Cc1nc2n(c(=O)c1CCN1CCC(c3noc4cc(F)ccc34)CC1)CCCC2 [RISPERIDONE] | Compound NOT metabolized |
| COc1cc(NC(C)CCCN)c2ncccc2c1.O=P(O)(O)O.O=P(O)(O)O (configuration not stated) [PRIMAQUINE PHOSPHATE] | Compound NOT metabolized |

Details: bacteroides fragilis, 12 h, 2 µM
Description: The drug is tested on Bacteroides fragilis strain: NCTC 9343 for biotransformation. The drug concentrations were measured before and after a 12-h incubation by liquid-chromatography-coupled mass spectrometry (LC–MS)

| Compound | Bacterial Biotransformation |
| --- | --- |
| CNC(=C[N+](=O)[O-])NCCSCc1ccc(CN(C)C)o1 [RANITIDINE] | Compound metabolized |
| Cc1nc2n(c(=O)c1CCN1CCC(c3noc4cc(F)ccc34)CC1)CCCC2 [RISPERIDONE] | Compound NOT metabolized |
| COc1cc(NC(C)CCCN)c2ncccc2c1.O=P(O)(O)O.O=P(O)(O)O (configuration not stated) [PRIMAQUINE PHOSPHATE] | Compound NOT metabolized |

Assay: The drug is tested on Clostridium ramosum strain: DSM1402 for biotransformation. The drug concentrations were measured before and after a 12-h incubation by liquid-chromatography-coupled mass spectrometry (LC–MS)
Details: thomasclavelia ramosa, 2 µM

| Compound | Bacterial Biotransformation |
| --- | --- |
| CNC(=C[N+](=O)[O-])NCCSCc1ccc(CN(C)C)o1 [RANITIDINE] | Compound metabolized |

Assay: The drug is tested on Alistipes indistinctus strain: DSM22520 for biotransformation. The drug concentrations were measured before and after a 12-h incubation by liquid-chromatography-coupled mass spectrometry (LC–MS)
Details: 2 µM

| Compound | Bacterial Biotransformation |
| --- | --- |
| NS(=O)(=O)c1cc2c(cc1Cl)N=C(CSCc1ccccc1)NS2(=O)=O [BENZTHIAZIDE] | Compound NOT metabolized |
| Cc1nc2n(c(=O)c1CCN1CCC(c3noc4cc(F)ccc34)CC1)CCCC2 [RISPERIDONE] | Compound metabolized |
| COc1cc(NC(C)CCCN)c2ncccc2c1.O=P(O)(O)O.O=P(O)(O)O (configuration not stated) [PRIMAQUINE PHOSPHATE] | Compound NOT metabolized |

Details: parabacteroides johnsonii, 12 h, 2 µM
Description: The drug is tested on Parabacteroides johnsonii strain: DSM18315 for biotransformation. The drug concentrations were measured before and after a 12-h incubation by liquid-chromatography-coupled mass spectrometry (LC–MS)

| Compound | Bacterial Biotransformation |
| --- | --- |
| CNC(=C[N+](=O)[O-])NCCSCc1ccc(CN(C)C)o1 [RANITIDINE] | Compound metabolized |
| Cc1nc2n(c(=O)c1CCN1CCC(c3noc4cc(F)ccc34)CC1)CCCC2 [RISPERIDONE] | Compound NOT metabolized |
| COc1cc(NC(C)CCCN)c2ncccc2c1.O=P(O)(O)O.O=P(O)(O)O (configuration not stated) [PRIMAQUINE PHOSPHATE] | Compound metabolized |

Assay: The drug is tested on Bacteroides pectinophilus strain: ATCC43243 for biotransformation. The drug concentrations were measured before and after a 12-h incubation by liquid-chromatography-coupled mass spectrometry (LC–MS)
Details: 2 µM

| Compound | Bacterial Biotransformation |
| --- | --- |
| CNC(=C[N+](=O)[O-])NCCSCc1ccc(CN(C)C)o1 [RANITIDINE] | Compound metabolized |
| NS(=O)(=O)c1cc2c(cc1Cl)N=C(CSCc1ccccc1)NS2(=O)=O [BENZTHIAZIDE] | Compound NOT metabolized |
| COc1cc(NC(C)CCCN)c2ncccc2c1.O=P(O)(O)O.O=P(O)(O)O (configuration not stated) [PRIMAQUINE PHOSPHATE] | Compound metabolized |

Assay: The drug is tested on Enterococcus faecalis strain: V583 for biotransformation. The drug concentrations were measured before and after a 12-h incubation by liquid-chromatography-coupled mass spectrometry (LC–MS)
Details: 2 µM

| Compound | Bacterial Biotransformation |
| --- | --- |
| CNC(=C[N+](=O)[O-])NCCSCc1ccc(CN(C)C)o1 [RANITIDINE] | Compound metabolized |
| NS(=O)(=O)c1cc2c(cc1Cl)N=C(CSCc1ccccc1)NS2(=O)=O [BENZTHIAZIDE] | Compound NOT metabolized |
| Cc1nc2n(c(=O)c1CCN1CCC(c3noc4cc(F)ccc34)CC1)CCCC2 [RISPERIDONE] | Compound metabolized |

Assay: The drug is tested on Ruminococcus torques strain: ATCC27756 for biotransformation. The drug concentrations were measured before and after a 12-h incubation by liquid-chromatography-coupled mass spectrometry (LC–MS)
Type: ADME
Set-up: dose 2 uM, timepoint 0 vs 12 hours
Details: 2 µM

| Compound | Bacterial Biotransformation |
| --- | --- |
| CNC(=C[N+](=O)[O-])NCCSCc1ccc(CN(C)C)o1 [RANITIDINE] | Compound metabolized |
| Cc1nc2n(c(=O)c1CCN1CCC(c3noc4cc(F)ccc34)CC1)CCCC2 [RISPERIDONE] | Compound NOT metabolized |
| COc1cc(NC(C)CCCN)c2ncccc2c1.O=P(O)(O)O.O=P(O)(O)O (configuration not stated) [PRIMAQUINE PHOSPHATE] | Compound NOT metabolized |
